Compound in one assay: COc1cccc2c1C(=O)c1c(O)c3c(c(O)c1C2=O)C[C@@](O)(C(=O)CO)C[C@@H]3O[C@H]1C[C@H](N)[C@H](O)[C@H](C)O1 [DOXORUBICIN]
The assay is described as follows: surviving fraction relative to DMSO-only wells; higher = less growth inhibition. Conditions: exposure time: 5 days. A digest of the protocol: (§1)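 Surviving fraction was calculated by normalising CellTiter-Glo luminescence to the median of DMSO-only wells. Tumour cell lines in log phase were seeded in 384-well plates at 250–500 cells per well, and 24 hours later were exposed continuously for five days to inhibitors at 0.5, 1, 5, 10, 50, 100, 500 and 1000 nM.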

Compound in a further assay: O=c1[nH]cc(F)c(=O)[nH]1 [FLUOROURACIL]
The assay is described as above. Particulars: exposure time: 5 days. A digest of the protocol: as §1

± gives the standard deviation of the averaged measurements.

In the case of MDAMB361 BREAST, the surviving fraction in the assay with DOXORUBICIN (0.5 nM) is 0.794 ± 0.089; in the assay with DOXORUBICIN (1 nM), 0.997 ± 0.12; with DOXORUBICIN (5 nM) it was 0.906 ± 0.013; in the assay with DOXORUBICIN (10 nM) it was 0.856 ± 0.074; in the assay with DOXORUBICIN (50 nM), 0.746 ± 0.038; with DOXORUBICIN (100 nM), 0.831 ± 0.1. Further, the surviving fraction came to 0.387 ± 0.034 in the assay with DOXORUBICIN (500 nM); 0.0543 ± 0.013 with DOXORUBICIN (1000 nM); 0.725 ± 0.094 with FLUOROURACIL (0.5 nM); 0.747 ± 0.067 with FLUOROURACIL (1 nM); 0.8 ± 0.092 with FLUOROURACIL (5 nM); 0.758 ± 0.12 with FLUOROURACIL (10 nM). In addition, the surviving fraction amounted to 0.537 ± 0.042 in the assay with FLUOROURACIL (50 nM), 0.618 ± 0.027 with FLUOROURACIL (100 nM), 0.704 ± 0.08 with FLUOROURACIL (500 nM) and 0.65 ± 0.061 with FLUOROURACIL (1000 nM).

Take SG32 HEADNECK: the surviving fraction came to 1.19 ± 0.12 with DOXORUBICIN (0.5 nM); 1.07 ± 0.27 in the assay with DOXORUBICIN (1 nM); 0.828 ± 0.14 with DOXORUBICIN (5 nM); 0.563 ± 0.099 in the assay with DOXORUBICIN (10 nM); 0.414 ± 0.04 with DOXORUBICIN (50 nM); 0.194 ± 0.019 with DOXORUBICIN (100 nM). For the same test system, the surviving fraction with DOXORUBICIN (500 nM) was 0.04 ± 0.017; with DOXORUBICIN (1000 nM), 0.0313 ± 0.0081; in the assay with FLUOROURACIL (0.5 nM), 1.28 ± 0.12; with FLUOROURACIL (1 nM), 0.974 ± 0.046; with FLUOROURACIL (5 nM), 1.21 ± 0.34; with FLUOROURACIL (10 nM), 0.932 ± 0.029. Also, the surviving fraction is 0.864 ± 0.056 in the assay with FLUOROURACIL (50 nM), 0.716 ± 0.098 in the assay with FLUOROURACIL (100 nM), 0.8 ± 0.095 in the assay with FLUOROURACIL (500 nM) and 0.442 ± 0.096 with FLUOROURACIL (1000 nM).

In the case of CAL120 BREAST, the surviving fraction in the assay with DOXORUBICIN (0.5 nM) is 0.955 ± 0.015; with DOXORUBICIN (1 nM), 0.916 ± 0.019; with DOXORUBICIN (5 nM), 0.902 ± 0.024; with DOXORUBICIN (10 nM) it was 0.822 ± 0.065; with DOXORUBICIN (50 nM), 0.401 ± 0.038; in the assay with DOXORUBICIN (100 nM), 0.285 ± 0.019. The surviving fraction with DOXORUBICIN (500 nM) turned out to be 0.0702 ± 0.0011; with DOXORUBICIN (1000 nM), 0.0468 ± 0.0028; with FLUOROURACIL (0.5 nM), 0.986 ± 0.039; in the assay with FLUOROURACIL (1 nM), 0.991 ± 0.041; with FLUOROURACIL (5 nM), 0.989 ± 0.034; in the assay with FLUOROURACIL (10 nM), 0.979 ± 0.069. The surviving fraction in the assay with FLUOROURACIL (50 nM) came out at 0.967 ± 0.015; with FLUOROURACIL (100 nM), 0.938 ± 0.032; in the assay with FLUOROURACIL (500 nM) it was 0.983 ± 0.043; in the assay with FLUOROURACIL (1000 nM), 0.803 ± 0.024.

On to MDAMB453 BREAST, for which the surviving fraction was determined as 1.05 ± 0.045 with DOXORUBICIN (0.5 nM); 1.04 ± 0.065 in the assay with DOXORUBICIN (1 nM); 1.07 ± 0.017 in the assay with DOXORUBICIN (5 nM); 1.08 ± 0.044 with DOXORUBICIN (10 nM); 0.723 ± 0.065 in the assay with DOXORUBICIN (50 nM); 0.395 ± 0.066 with DOXORUBICIN (100 nM). For the same test system, the surviving fraction stood at 0.0503 ± 0.0055 with DOXORUBICIN (500 nM); 0.0433 ± 0.0023 with DOXORUBICIN (1000 nM); 1.01 ± 0.092 with FLUOROURACIL (0.5 nM); 1.01 ± 0.13 in the assay with FLUOROURACIL (1 nM); 1.06 ± 0.11 with FLUOROURACIL (5 nM); 0.987 ± 0.079 in the assay with FLUOROURACIL (10 nM). In addition, the surviving fraction with FLUOROURACIL (50 nM) was determined as 0.979 ± 0.035; with FLUOROURACIL (100 nM), 0.968 ± 0.016; with FLUOROURACIL (500 nM), 0.795 ± 0.026; with FLUOROURACIL (1000 nM) it was 0.706 ± 0.009.

Consider DU4475 BREAST, for which the surviving fraction in the assay with DOXORUBICIN (0.5 nM) is 0.818 ± 0.31; in the assay with DOXORUBICIN (1 nM) it was 1.23 ± 0.41; in the assay with DOXORUBICIN (5 nM), 0.233 ± 0.071; in the assay with DOXORUBICIN (10 nM) it was 0.139 ± 0.054; with DOXORUBICIN (50 nM), 0.029 ± 0.0066; with DOXORUBICIN (100 nM) it was 0.0287 ± 0.0051. Also, the surviving fraction turned out to be 0.025 ± 0.0046 with DOXORUBICIN (500 nM); 0.0273 ± 0.0051 in the assay with DOXORUBICIN (1000 nM); 0.972 ± 0.062 with FLUOROURACIL (0.5 nM); 1.06 ± 0.068 in the assay with FLUOROURACIL (1 nM); 0.934 ± 0.12 in the assay with FLUOROURACIL (5 nM); 1.13 ± 0.12 with FLUOROURACIL (10 nM). For the same test system, the surviving fraction with FLUOROURACIL (50 nM) came out at 1.01 ± 0.16; with FLUOROURACIL (100 nM), 0.987 ± 0.27; with FLUOROURACIL (500 nM), 1.06 ± 0.081; with FLUOROURACIL (1000 nM) it was 0.939 ± 0.1.

Regarding NCIH441 LUNG, the surviving fraction with DOXORUBICIN (0.5 nM) was 1.04 ± 0.054; with DOXORUBICIN (1 nM) it was 1.06 ± 0.051; with DOXORUBICIN (5 nM), 0.937 ± 0.032; with DOXORUBICIN (10 nM) it was 0.799 ± 0.029; in the assay with DOXORUBICIN (50 nM) it was 0.558 ± 0.013; in the assay with DOXORUBICIN (100 nM), 0.461 ± 0.024. Moreover, the surviving fraction amounted to 0.246 ± 0.019 in the assay with DOXORUBICIN (500 nM); 0.096 ± 0.0069 with DOXORUBICIN (1000 nM); 1.08 ± 0.054 in the assay with FLUOROURACIL (0.5 nM); 1.05 ± 0.076 with FLUOROURACIL (1 nM); 1.06 ± 0.11 with FLUOROURACIL (5 nM); 1.1 ± 0.021 in the assay with FLUOROURACIL (10 nM). Also, the surviving fraction was found to be 0.996 ± 0.16 with FLUOROURACIL (50 nM), 0.95 ± 0.18 in the assay with FLUOROURACIL (100 nM), 0.998 ± 0.1 with FLUOROURACIL (500 nM) and 0.798 ± 0.11 in the assay with FLUOROURACIL (1000 nM).

As to CASKI CERVIX, the surviving fraction with DOXORUBICIN (0.5 nM) was found to be 0.684 ± 0.14; in the assay with DOXORUBICIN (1 nM), 0.85 ± 0.04; in the assay with DOXORUBICIN (5 nM) it was 0.221 ± 0.044; with DOXORUBICIN (10 nM) it was 0.292 ± 0.049; in the assay with DOXORUBICIN (50 nM), 0.035 ± 0.005; in the assay with DOXORUBICIN (100 nM) it was 0.143 ± 0.032. Further, the surviving fraction came out at 0.0187 ± 0.0021 in the assay with DOXORUBICIN (500 nM); 0.0253 ± 0.0015 in the assay with DOXORUBICIN (1000 nM); 0.957 ± 0.037 with FLUOROURACIL (0.5 nM); 0.928 ± 0.045 with FLUOROURACIL (1 nM); 0.935 ± 0.04 in the assay with FLUOROURACIL (5 nM); 0.941 ± 0.068 with FLUOROURACIL (10 nM). Moreover, the surviving fraction with FLUOROURACIL (50 nM) was 0.92 ± 0.046; with FLUOROURACIL (100 nM), 0.916 ± 0.066; in the assay with FLUOROURACIL (500 nM) it was 0.801 ± 0.045; in the assay with FLUOROURACIL (1000 nM), 0.555 ± 0.033.

On to SJSA1 BONE, for which the surviving fraction with DOXORUBICIN (0.5 nM) is 1.02 ± 0.015; in the assay with DOXORUBICIN (1 nM), 0.991 ± 0.027; in the assay with DOXORUBICIN (5 nM), 0.927 ± 0.012; in the assay with DOXORUBICIN (10 nM), 0.636 ± 0.052; with DOXORUBICIN (50 nM) it was 0.564 ± 0.014; with DOXORUBICIN (100 nM), 0.284 ± 0.013. Besides, the surviving fraction in the assay with DOXORUBICIN (500 nM) was 0.0957 ± 0.005; with DOXORUBICIN (1000 nM), 0.0317 ± 0.0021; in the assay with FLUOROURACIL (0.5 nM), 1.19 ± 0.1; with FLUOROURACIL (1 nM), 1.6 ± 0.092; in the assay with FLUOROURACIL (5 nM), 1.59 ± 0.11; with FLUOROURACIL (10 nM), 1.52 ± 0.2. For the same test system, the surviving fraction in the assay with FLUOROURACIL (50 nM) was 0.135 ± 0.008; in the assay with FLUOROURACIL (100 nM) it was 0.823 ± 0.018; in the assay with FLUOROURACIL (500 nM), 1.44 ± 0.026; with FLUOROURACIL (1000 nM), 0.116 ± 0.001.

The record behind these values is the supplement of paper PMC6045584.
